US20260184691A1, “INHIBITORS AND DEGRADERS OF PIP4K PROTEIN” (Larkspur Biosciences, Inc., priority 2022, published 2026)

biological target: T1, endogenous PIP4K2C C-terminally tagged with HiBiT peptide in MOLT-4 cells (Homo sapiens, UniProt Q8TBX8); assay: HiBiT PIP4K2C degradation assay in MOLT-4 cells; type: cell-based; details: 24 hours, 10-point dose response, top concentration 10 micromolar, read-out: HiBIT-degradation MOLT4 PIP4k2C 24 hours DC50
T1 construct: to C-terminally tag endogenous PIP4K2C with HiBiT peptide; host or cells: MOLT-4 (CRISPR-Cas9 knock-in clone)
T1 sequence (Q8TBX8 1-421): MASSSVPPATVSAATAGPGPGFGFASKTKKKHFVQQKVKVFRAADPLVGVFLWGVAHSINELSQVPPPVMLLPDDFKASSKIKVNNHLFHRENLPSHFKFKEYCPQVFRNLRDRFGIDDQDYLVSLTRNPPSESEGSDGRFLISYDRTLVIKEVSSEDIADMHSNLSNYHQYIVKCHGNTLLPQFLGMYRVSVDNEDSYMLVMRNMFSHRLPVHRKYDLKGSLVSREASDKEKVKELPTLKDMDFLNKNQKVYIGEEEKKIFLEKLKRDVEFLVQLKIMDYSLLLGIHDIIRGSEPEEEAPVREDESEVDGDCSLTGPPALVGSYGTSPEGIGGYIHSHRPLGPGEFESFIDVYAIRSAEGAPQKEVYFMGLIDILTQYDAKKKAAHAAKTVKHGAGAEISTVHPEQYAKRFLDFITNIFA
Outline: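 Cells bearing C-terminal HiBiT knock-in were exposed to a 10-point, 3-fold dilution series (top 10 micromolar, duplicate) for 24 h at 37C, 5% CO2. Remaining tagged protein read by lytic HiBiT luminescence; DC50 from Hill-equation fit.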

Structure (SMILES)	DC50
O=C1CCC(N2C(=O)c3ccc(OCCCCCCC(=O)N4CCC5(CC4)CCN(c4cncc(Nc6ncc(Cl)c(-c7cccc(-c8ccccc8)c7)n6)c4)C5=O)cc3C2=O)C(=O)N1 (stereo not drawn) [Compound 74, 5-((7-(2-(5-((4-([1,1′-biphenyl]-3-yl)-5-chloropyrimidin-2-yl)amino)pyridin-3-yl)-1-oxo-2,8-diazaspiro[4.5]decan-8-yl)-7-oxoheptyl)oxy)-2-(2,6-dioxopiperidin-3-yl)isoindoline-1,3-dione]	< 0.5 µM
O=C(CCOc1cccc2c1C(=O)N(C1CCC(=O)NC1=O)C2=O)NCCCCCCCCC(=O)Nc1cncc(Nc2ncc(Cl)c(-c3cccc(-c4ccccc4)c3)n2)c1 (stereo not drawn) [Compound 89, N-(5-((4-([1,1′-biphenyl]-3-yl)-5-chloropyrimidin-2-yl)amino)pyridin-3-yl)-9-(3-((2-(2,6-dioxopiperidin-3-yl)-1,3-dioxoisoindolin-4-yl)oxy)propanamido)nonanamide]	< 0.5 µM
O=C1CCC(N2Cc3cc(OCCCCCCCCN4CCC5(CC4)CCN(c4cncc(Nc6ncc(Cl)c(-c7cccc(-c8ccccc8)c7)n6)c4)C5=O)ccc3C2=O)C(=O)N1 (stereo not drawn) [Compound 56, 3-(5-((8-(2-(5-((4-([1,1′-biphenyl]-3-yl)-5-chloropyrimidin-2-yl)amino)pyridin-3-yl)-1-oxo-2,8-diazaspiro[4.5]decan-8-yl)octyl)oxy)-1-oxoisoindolin-2-yl)piperidine-2,6-dione]	< 0.5 µM
O=C1CCC(Nc2ccc(C3CCN(CC(=O)N4CCC5(CC4)CCN(c4cncc(Nc6ncc(Cl)c(N7CCC[C@@H](C(F)(F)F)C7)n6)c4)C5=O)CC3)cc2)C(=O)N1 (stereo partly drawn) [Compound 171, 3-((4-(1-(2-(2-(5-((5-chloro-4-((R)-3-(trifluoromethyl)piperidin-1-yl)pyrimidin-2-yl)amino)pyridin-3-yl)-1-oxo-2,8-diazaspiro[4.5]decan-8-yl)-2-oxoethyl)piperidin-4-yl)phenyl)amino)piperidine-2,6-dione]	< 0.5 µM
O=C1CCC(N2Cc3c(OCCCCCCCCCC(=O)N4CCC5(CC4)CCN(c4cncc(Nc6ncc(Cl)c(-c7cccc(-c8ccccc8)c7)n6)c4)C5=O)cccc3C2=O)C(=O)N1 (stereo not drawn) [Compound 69, 3-(4-((10-(2-(5-((4-([1,1′-biphenyl]-3-yl)-5-chloropyrimidin-2-yl)amino)pyridin-3-yl)-1-oxo-2,8-diazaspiro[4.5]decan-8-yl)-10-oxodecyl)oxy)-1-oxoisoindolin-2-yl)piperidine-2,6-dione]	< 0.5 µM
O=C1CCC(N2Cc3cc(OCCCCCCCCCN4CCC5(CC4)CCN(c4cncc(Nc6ncc(Cl)c(-c7cccc(-c8ccccc8)c7)n6)c4)C5=O)ccc3C2=O)C(=O)N1 (stereo not drawn) [Compound 53, 3-(5-((9-(2-(5-((4-([1,1′-biphenyl]-3-yl)-5-chloropyrimidin-2-yl)amino)pyridin-3-yl)-1-oxo-2,8-diazaspiro[4.5]decan-8-yl)nonyl)oxy)-1-oxoisoindolin-2-yl)piperidine-2,6-dione]	< 0.5 µM
O=C1CCC(Nc2ccc(C3CCN(CC(=O)N4CCC5(CC4)CCN(c4cncc(Nc6ncc(Cl)c(N7CCC[C@@H](O)C7)n6)c4)C5=O)CC3)cc2)C(=O)N1 (stereo partly drawn) [Compound 170, 3-((4-(1-(2-(2-(5-((5-chloro-4-((R)-3-hydroxypiperidin-1-yl)pyrimidin-2-yl)amino)pyridin-3-yl)-1-oxo-2,8-diazaspiro[4.5]decan-8-yl)-2-oxoethyl)piperidin-4-yl)phenyl)amino)piperidine-2,6-dione]	< 0.5 µM
CN1CCC(n2cc(-c3nc(Nc4cncc(N5CCC6(CCN(C(=O)CN7CCC(c8ccc(NC9CCC(=O)NC9=O)cc8)CC7)CC6)C5=O)c4)ncc3Cl)cn2)CC1 (stereo not drawn) [Compound 194, 3-((4-(1-(2-(2-(5-((5-chloro-4-(1-(1-methylpiperidin-4-yl)-1H-pyrazol-4-yl)pyrimidin-2-yl)amino)pyridin-3-yl)-1-oxo-2,8-diazaspiro[4.5]decan-8-yl)-2-oxoethyl)piperidin-4-yl)phenyl)amino)piperidine-2,6-dione]	< 0.5 µM
O=C1CCC(Nc2ccc(N3CCC(CC(=O)N4CCC5(CC4)CCN(c4cncc(Nc6ncc(Cl)c(-c7cccc(C8CCCC8)c7)n6)c4)C5=O)CC3)cc2)C(=O)N1 (stereo not drawn) [Compound 191, 3-((4-(4-(2-(2-(5-((5-chloro-4-(3-cyclopentylphenyl)pyrimidin-2-yl)amino)pyridin-3-yl)-1-oxo-2,8-diazaspiro[4.5]decan-8-yl)-2-oxoethyl)piperidin-1-yl)phenyl)amino)piperidine-2,6-dione]	< 0.5 µM
O=C1CCC(N2Cc3cc(OCCCCCCCCC(=O)N4CCC5(CC4)CCN(c4cncc(Nc6ncc(Cl)c(-c7cccc(-c8ccccc8)c7)n6)c4)C5=O)ccc3C2=O)C(=O)N1 (stereo not drawn) [Compound 62, 3-(5-((9-(2-(5-((4-([1,1′-biphenyl]-3-yl)-5-chloropyrimidin-2-yl)amino)pyridin-3-yl)-1-oxo-2,8-diazaspiro[4.5]decan-8-yl)-9-oxononyl)oxy)-1-oxoisoindolin-2-yl)piperidine-2,6-dione]	< 0.5 µM
O=C1CCC(Nc2ccc(N3CCC(CN4CCC5(CC4)CCN(c4cncc(Nc6ncc(Cl)c(-c7ccc(Cl)cc7)n6)c4)C5=O)CC3)cc2)C(=O)N1 (stereo not drawn) [Compound 174, 3-((4-(4-((2-(5-((5-chloro-4-(4-chlorophenyl)pyrimidin-2-yl)amino)pyridin-3-yl)-1-oxo-2,8-diazaspiro[4.5]decan-8-yl)methyl)piperidin-1-yl)phenyl)amino)piperidine-2,6-dione]	1 to 5 µM
O=C1CCC(N2Cc3cc(C4CCN(CC(=O)N5CCC6(CC5)CCN(c5cncc(Nc7ncc(Cl)c(-c8cccc(C9CC9)c8)n7)c5)C6=O)CC4)ccc3C2=O)C(=O)N1 (stereo not drawn) [Compound 207, 3-(5-(1-(2-(2-(5-((5-chloro-4-(3-cyclopropylphenyl)pyrimidin-2-yl)amino)pyridin-3-yl)-1-oxo-2,8-diazaspiro[4.5]decan-8-yl)-2-oxoethyl)piperidin-4-yl)-1-oxoisoindolin-2-yl)piperidine-2,6-dione]	< 0.5 µM
O=C1CCC(Nc2ccc(N3CCC(CC(=O)N4CCC5(CC4)CCN(c4cncc(Nc6ncc(Cl)c(N7CCC[C@@H](O)C7)n6)c4)C5=O)CC3)cc2)C(=O)N1 (stereo partly drawn) [Compound 176, 3-((4-(4-(2-(2-(5-((5-chloro-4-((R)-3-hydroxypiperidin-1-yl)pyrimidin-2-yl)amino)pyridin-3-yl)-1-oxo-2,8-diazaspiro[4.5]decan-8-yl)-2-oxoethyl)piperidin-1-yl)phenyl)amino)piperidine-2,6-dione]	< 0.5 µM
O=C1CCC(N2Cc3cc(OC4CCN(C(=O)CN5CCC(C(=O)Nc6cncc(Nc7ncc(Cl)c(-c8cccc(C9CC9)c8)n7)c6)CC5)CC4)ccc3C2=O)C(=O)N1 (stereo not drawn) [Compound 201, N-(5-((5-chloro-4-(3-cyclopropylphenyl)pyrimidin-2-yl)amino)pyridin-3-yl)-1-(2-(4-((2-(2,6-dioxopiperidin-3-yl)-1-oxoisoindolin-5-yl)oxy)piperidin-1-yl)-2-oxoethyl)piperidine-4-carboxamide]	< 0.5 µM
O=C1CCC(N2Cc3cc(OCCCCC(=O)N4CCC5(CC4)CCN(c4cncc(Nc6ncc(Cl)c(-c7cccc(-c8ccccc8)c7)n6)c4)C5=O)ccc3C2=O)C(=O)N1 (stereo not drawn) [Compound 87, 3-(5-((5-(2-(5-((4-([1,1′-biphenyl]-3-yl)-5-chloropyrimidin-2-yl)amino)pyridin-3-yl)-1-oxo-2,8-diazaspiro[4.5]decan-8-yl)-5-oxopentyl)oxy)-1-oxoisoindolin-2-yl)piperidine-2,6-dione]	< 0.5 µM
